{"source": "patent EP1077981B1", "about": "“NOVEL CEPHALOSPORIN COMPOUNDS, PROCESSES FOR PREPARATION THEREOF AND ANTIMICROBIAL COMPOSITIONS CONTAINING THE SAME” (LG CHEMICAL LIMITED, priority 1998, dated 1999)", "assay_in_all_cases": "MIC against standard strains (agar dilution)", "type_in_all_cases": "cell-based", "key": {"[1]": {"system": "Serratia marcescens 1826E", "conditions": "Serratia marcescens 1826E; Mueller-Hinton agar, 20 hours at 37°C; read-out: MIC", "outline": "(§1)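 Minimum inhibitory concentrations come from Mueller-Hinton agar plates with 2-fold compound dilutions, inoculated at 10^7 cfu/mℓ and held 20 hours at 37°C.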"}, "[2]": {"system": "Escherichia coli TEM9 2639E", "conditions": "TEM92639E; Escherichia coli TEM9 2639E; Mueller-Hinton agar, 20 hours at 37°C; read-out: MIC", "outline": "as §1"}, "[3]": {"system": "Moraxella catarrhalis C2431", "conditions": "Moraxella catarrhalis C2431; Mueller-Hinton agar, 20 hours at 37°C; read-out: MIC", "outline": "as §1"}, "[4]": {"system": "Enterococcus faecalis 29212", "conditions": "Enterococcus faecalis 29212; Mueller-Hinton agar, 20 hours at 37°C; read-out: MIC", "outline": "as §1"}, "[5]": {"system": "Citrobacter diversus 2046E", "conditions": "Citrobacter koseri; Citrobacter diversus 2046E; Mueller-Hinton agar, 20 hours at 37°C; read-out: MIC", "outline": "as §1"}, "[6]": {"system": "Citrobacter freundii 8090", "conditions": "Citrobacter freundii 8090; Mueller-Hinton agar, 20 hours at 37°C; read-out: MIC", "outline": "as §1"}, "[7]": {"system": "Staphylococcus aureus 241", "conditions": "Staphylococcus aureus 241; Mueller-Hinton agar, 20 hours at 37°C; read-out: MIC", "outline": "as §1"}, "Enterobacter cloacae P99": {"system": "Enterobacter cloacae P99", "conditions": "Enterobacter cloacae P99; Mueller-Hinton agar, 20 hours at 37°C; read-out: MIC", "outline": "as §1"}, "[8]": {"system": "Moraxella catarrhalis 25240", "conditions": "Moraxella catarrhalis 25240; Mueller-Hinton agar, 20 hours at 37°C; read-out: MIC", "outline": "as §1"}, "Staphylococcus aureus 77": {"system": "Staphylococcus aureus 77", "conditions": "Staphylococcus aureus 77; Mueller-Hinton agar, 20 hours at 37°C; read-out: MIC", "outline": "as §1"}}}
{"smiles": "CO/N=C(\\C(=O)NC1C(=O)N2C(C(=O)O)=C(Sc3cc(N)nc(N)n3)CSC12)c1csc(N)n1", "note": "(stereo not shown) [Compound No. 25, 7-[(Z)-2-(2-amino-thiazol-4-yl)-2-methoxyimino-acetylamino]-3-(2,6-diamino-pyrimidin-4-ylsulfanyl)-8-oxo-5-thia-1-azabicyclo[4,2,0]oct-2-ene-2-carboxylic acid]", "values": [{"measurement": "MIC", "setting": "[1]", "value": 2, "unit": "µg/mL"}, {"measurement": "MIC", "setting": "[2]", "value": 32, "unit": "µg/mL"}, {"measurement": "MIC", "setting": "[3]", "value": "≤ 0.008", "unit": "µg/mL"}, {"measurement": "MIC", "setting": "[4]", "value": "> 64", "unit": "µg/mL"}, {"measurement": "MIC", "setting": "[5]", "value": "> 64", "unit": "µg/mL"}, {"measurement": "MIC", "setting": "[6]", "value": 1, "unit": "µg/mL"}, {"measurement": "MIC", "setting": "[7]", "value": 8, "unit": "µg/mL"}, {"measurement": "MIC", "setting": "Enterobacter cloacae P99", "value": "> 64", "unit": "µg/mL"}, {"measurement": "MIC", "setting": "[8]", "value": "≤ 0.008", "unit": "µg/mL"}, {"measurement": "MIC", "setting": "Staphylococcus aureus 77", "value": 4, "unit": "µg/mL"}]}
